Conditions: 345.7 K; Crystal; visual observation

vapor or sublimation pressure: 3000 kPa
Structure (SMILES): c1ccc2ccccc2c1 [naphthalene]

Source: the NIST ThermoML archive (doi:10.1016/j.fluid.2010.09.006)
